In patent US20150224190A1, “Combination of a phosphoinositide 3-kinase inhibitor and an inhibitor of the IL-8/CXCR interaction” (priority 2012, published 2015):

Columns and labels:
IL-8 = IL-8 levels in dissected primary triple-negative breast tumors or plasma of mice (ELISA); assay type: in vivo, human; settings: day 3 of treatment with 30 mg/kg BEZ235 vs vehicle
Method: FIG. 5. BEZ235 treatment activates JAK2/STAT5 and IL-8 secretion in human primary triple-negative breast tumors Bar graphs showing IL-8 levels measured by ELISA in the dissected tumors from or in the plasma of mice at day 3 of treatment with 30 mg/kg BEZ235 or vehicle (VHC). Results represent means±SEM (n=3-4, *P<0.05). For assessing pJAK2 levels, an ELISA assay ([…]/1008, Invitrogen) was applied because of cross-reactivity of all pJAK2 antibodies tested. Interleukin-8 levels in RIPA lysates, cell culture supernatants and mouse tail vein blood plasma were measured by ELISA, as well (Biolegend). Cytokine arrays on cell culture supernatants and mouse tumor lysates were performed according the manufacture's protocol (R & D systems, Human and Mouse cytokine array panel A). […] Tumors were measured every 3 to 4 days with vernier calipers, and tumor volumes were calculated by the formula 0.5×(larger diameter)×(smaller diameter)^2. End point tumor sizes were analyzed for synergism using the formula AB/C<A/C×B/C, where C=tumor volume VHC, A=tumor volume compound 1, B=tumor volume compound 2, AB=tumor volume combination (Clarke, 1997).

JAK2/STAT5 = JAK2/STAT5 phosphorylation in breast cancer cell lines (pJAK2 ELISA, pSTAT5 immunoblot); assay type: cell-based, human; settings: in vitro, after 4 hours-8 hours of treatment
Method: MDA231, lung metastatic subline MDA231 LM2 (Minn et al., 2005) and SUM159 human breast cancer cells, as well as the Balb/c tumor-derived mammary cancer lines 4T-1 and 168FARN (Aslakson and Miller, 1992), were propagated as previously described. All other cell lines were obtained from and were cultured according to the protocols of ATCC. For treatment with inhibitors, cells were synchronized without serum overnight and then supplemented with culture medium containing the inhibitor(s). For experiments with doxycycline-inducible shRNAs, 500 ng/ml of doxycycline (Sigma) was added to the medium and experiments performed 48 h later. Cell viability assays, cell cycle and cell death measurements were performed at 0.5% FCS in order to avoid masking effects of growth factors present under full-serum conditions.
Cells for Western Blotting and ELISA were lysed with RIPA buffer. Xenograft lysates were prepared by lysing kryo-homogenized tumor powder in RIPA buffer (50 mM Tris-HCl pH 8, 150 mM NaCl, 1% NP-40, 0.5% sodium deoxycholate, 0.1% SDS. RIPA was supplemented with 1× protease inhibitor cocktail (Complete Mini, Roche), 0.2 mmol/L sodium-vanadate, 20 mM sodium fluoride and 1 mmol/L phenylmethylsulfonyl fluoride. For IRS-1 immunoprecipitation, cell lysates containing 500-1000 μg of protein were incubated with 1 μg of antibody and 20-50 μl of protein A-Sepharose beads (Zymed Laboratories, Inc., South San Francisco, Calif.) overnight at 4° C. Immunoprecipitates or whole cell lysates (30-80 μg) were subjected to SDS-PAGE, transferred to PVDF membranes (Immobilon-P, Millipore) and blocked for 1 hr at room temperature with 5% milk in PBS-0.1% Tween 20. Membranes were then incubated overnight with antibodies as indicated and exposed to secondary HRP-coupled anti-mouse or -rabbit antibody at 1:5-10,000 for 1 h at room temperature. Proteins were visualized using an ECL kit (Amersham) or an enhanced chemiluminescence detection system (Pierce Biotechnology). In each of the studies presented, the results shown are typical of at least three independent experiments. The following antibodies were used: anti-JAK2 (Cell Signaling), anti-JAK1 (Cell Signaling), anti-pSTAT5 (Tyr694, Cell Signaling), anti-STAT5 (STAT5A&B, Cell Signaling), anti-STAT3 (Cell Signaling), anti-pSTAT3 (Tyr705, Cell Signaling), anti-AKT pan (Cell Signaling), anti-pAKT (Thr308 and Ser473, Cell Signaling), anti-ERK2 (Santa Cruz), anti-S6 (Cell Signaling), anti-pS6 (Ser235/236, Cell Signaling), anti-PARP (Cell Signaling), anti-MCL1 (Cell Signaling), anti-BIM (EL, L and S isoforms, Cell Signaling), anti-pIGF1R/plnsR (Invitrogen), anti-IGF1Rbeta (Cell Signaling), anti-InsRbeta (Santa Cruz), anti-IRS1 (Upstate), anti-plRS1 (Tyr612, Calbiochem).
For assessing pJAK2 levels, an ELISA assay (Tyr1007/1008, Invitrogen) was applied because of cross-reactivity of all pJAK2 antibodies tested. Interleukin-8 levels in RIPA lysates, cell culture supernatants and mouse tail vein blood plasma were measured by ELISA, as well (Biolegend). […]
The present inventors applied single doses of COMPOUND A, a dual PI3K and mTOR inhibitor, and analyzed target inhibition and potential signaling pathway crosstalks after 2, 4, 8 and 20 h hours of treatment. […] While RAD001 readily activated JAK2 starting at 4 hours of treatment, they observed a later response with BKM120 treatment starting at 8 hours after adding the compound. […]

## Cn1c(=O)n(-c2ccc(C(C)(C)C#N)cc2)c2c3cc(-c4cnc5ccccc5c4)ccc3ncc21 [COMPOUND A, 2-methyl-2-[4-(3-methyl-2-oxo-8-quinolin-3-yl-2,3-dihydro-imidazo[4,5-c]quinolin-1-yl)-phenyl]-propionitrile]
IL-8
  IL-8 secretion (IL-8 levels in tumors or plasma): activates
JAK2/STAT5
  pJAK2: considerable upregulation
  pSTAT5: considerable upregulation
